We go through 21 compounds from patent US8546588B2, “Substituted hydroxamic acids and uses thereof” (Millennium Pharmaceuticals, Inc., priority 2010, dated 2013).

A value given as a limit tells only on which side of the number the result lay.

As a reminder, the IC50 is the concentration that inhibits the measured activity by half. Read a low IC50 as inhibition by little substance.

For the assay, the target named is T1, purified human HDAC6 (Homo sapiens, UniProt Q9UBN7).
T1 construct: purchased BPS Bioscience 5006
T1 sequence (Q9UBN7 1-1215): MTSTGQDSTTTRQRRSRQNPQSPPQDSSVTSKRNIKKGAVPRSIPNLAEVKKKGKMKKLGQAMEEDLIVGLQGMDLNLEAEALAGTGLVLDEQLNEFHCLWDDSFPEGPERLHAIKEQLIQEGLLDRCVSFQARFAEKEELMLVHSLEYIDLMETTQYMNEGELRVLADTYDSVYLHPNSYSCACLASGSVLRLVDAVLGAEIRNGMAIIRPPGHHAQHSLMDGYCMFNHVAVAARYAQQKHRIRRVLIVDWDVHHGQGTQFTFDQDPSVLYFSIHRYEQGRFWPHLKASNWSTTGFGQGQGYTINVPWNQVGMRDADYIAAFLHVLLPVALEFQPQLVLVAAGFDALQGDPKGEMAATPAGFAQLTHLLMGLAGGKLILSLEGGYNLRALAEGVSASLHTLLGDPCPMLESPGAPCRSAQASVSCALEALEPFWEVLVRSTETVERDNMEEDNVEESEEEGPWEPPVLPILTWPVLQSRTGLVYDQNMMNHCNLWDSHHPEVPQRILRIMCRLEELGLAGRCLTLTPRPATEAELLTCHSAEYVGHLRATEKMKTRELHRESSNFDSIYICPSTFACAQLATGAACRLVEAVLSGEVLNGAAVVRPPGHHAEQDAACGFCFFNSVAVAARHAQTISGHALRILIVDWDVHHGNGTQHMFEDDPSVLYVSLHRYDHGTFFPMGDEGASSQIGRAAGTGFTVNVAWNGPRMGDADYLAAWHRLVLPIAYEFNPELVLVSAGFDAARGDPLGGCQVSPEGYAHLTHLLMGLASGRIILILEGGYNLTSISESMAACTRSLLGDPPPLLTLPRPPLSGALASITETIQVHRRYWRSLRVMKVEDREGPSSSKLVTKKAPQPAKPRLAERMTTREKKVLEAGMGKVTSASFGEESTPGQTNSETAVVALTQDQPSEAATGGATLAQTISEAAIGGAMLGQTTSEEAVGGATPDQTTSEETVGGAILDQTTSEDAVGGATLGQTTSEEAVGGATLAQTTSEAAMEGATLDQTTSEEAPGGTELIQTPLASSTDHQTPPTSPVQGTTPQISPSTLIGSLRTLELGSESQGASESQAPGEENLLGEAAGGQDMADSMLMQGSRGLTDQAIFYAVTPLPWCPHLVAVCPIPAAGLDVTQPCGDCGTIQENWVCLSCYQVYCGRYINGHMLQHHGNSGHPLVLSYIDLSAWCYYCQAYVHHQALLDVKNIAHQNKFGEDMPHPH
In words: HDAC6 Enzyme Assay. It is filed as biochemical. Conditions: substrate Ac-Arg-Gly-Lys(Ac)-AMC peptide, 1 hour at 30° C. How it is done: To measure the inhibition of HDAC6 activity, purified human HDAC6 (BPS Bioscience; Cat. No. 5006) is incubated with substrate Ac-Arg-Gly-Lys(Ac)-AMC peptide (Bachem Biosciences; Cat. No. I-1925) for 1 hour at 30° C. in the presence of test compounds or vehicle DMSO control. The reaction is stopped with the HDAC inhibitor trichostatin A (Sigma; Cat. No. T8552) and the amount of Arg-Gly-Lys-AMC generated is quantitated by digestion with trypsin (Sigma; Cat. No. T1426) and subsequent measurement of the amount of AMC released using a fluorescent plate reader (Pherastar; BMG Technologies) set at Ex 340 nm and Em 460 nm. Concentration response curves are generated by calculating the fluorescence increase in test compound-treated samples relative to DMSO-treated controls, and enzyme inhibition (IC50) values are determined from those curves.
`Cc1nc(-c2ccccn2)sc1C(=O)N[C@H](C)c1cc(C(=O)NO)on1` [Compound I-163, N-hydroxy-3-((1R)-1-{[(4-methyl-2-pyridin-2-yl-1,3-thiazol-5-yl)carbonyl]amino}ethyl)isoxazole-5-carboxamide] displayed an IC50 above 500 nM.

`COc1ccc(C(=O)N[C@H](C)c2cc(C(=O)NO)on2)cc1` [Compound I-164, N-hydroxy-3-{(1R)-1-[(4-methoxybenzoyl)amino]ethyl}isoxazole-5-carboxamide] showed an IC50 above 500 nM.

Turning to `C[C@@H](NC(=O)c1cc2ccccc2o1)c1ncc(C(=O)NO)s1` [Compound I-165, 2-{(1R)-1-[(1-benzofuran-2-ylcarbonyl)amino]ethyl}-N-hydroxy-1,3-thiazole-5-carboxamide], the IC50 is below 100 nM.

Take `C[C@@H](NC(=O)C(C)(C)C)c1ncc(C(=O)NO)s1` [Compound I-166, 2-{(1R)-1-[(2,2-dimethylpropanoyl)amino]ethyl}-N-hydroxy-1,3-thiazole-5-carboxamide]: the IC50 is above 500 nM.

In the case of `Cc1nc(-c2ccccn2)sc1C(=O)N[C@H](C)c1ncc(C(=O)NO)s1` [Compound I-167, N-((1R)-1-{5-[(hydroxyamino)carbonyl]-1,3-thiazol-2-yl}ethyl)-4-methyl-2-pyridin-2-yl-1,3-thiazole-5-carboxamide], the IC50 is below 100 nM.

For the compound `Cc1nc(-c2ccccn2)sc1C(=O)N[C@@H](C)c1ncc(C(=O)NO)s1` [Compound I-168, N-((1S)-1-{5-[(hydroxyamino)carbonyl]-1,3-thiazol-2-yl}ethyl)-4-methyl-2-pyridin-2-yl-1,3-thiazole-5-carboxamide], the IC50 was below 100 nM.

As to `COc1ccc(C(=O)N[C@H](C)c2ncc(C(=O)NO)s2)cc1` [Compound I-169, N-hydroxy-2-{(1R)-1-[(4-methoxybenzoyl)amino]ethyl}-1,3-thiazole-5-carboxamide], the IC50 is 100 to 500 nM.

Turning to `C[C@@H](NC(=O)C12CC3CC(CC(C3)C1)C2)c1cc(C(=O)NO)on1` [Compound I-170, 3-{(1R)-1-[(1-adamantylcarbonyl)amino]ethyl}-N-hydroxyisoxazole-5-carboxamide], the IC50 was above 500 nM.

In turn, `C[C@H](NC(=O)C1(C)CCCCC1)c1ncc(C(=O)NO)s1` [Compound I-171, N-hydroxy-2-((1S)-1-{[(1-methylcyclohexyl)carbonyl]amino}ethyl)-1,3-thiazole-5-carboxamide] gave an IC50 above 500 nM.

Take `C[C@@H](NC(=O)C12CC3CC(CC(C3)C1)C2)c1ncc(C(=O)NO)s1` [Compound I-172, 2-((1R)-1-{[1-adamantylcarbonyl]amino}ethyl)-N-hydroxy-1,3-thiazole-5-carboxamide]: the IC50 was above 500 nM.

In turn, `C[C@H](NC(=O)c1nc2ccccc2n1C)c1ncc(C(=O)NO)s1` [Compound I-173, N-((1S)-1-{5-[(hydroxyamino)carbonyl]-1,3-thiazol-2-yl}ethyl)-1-methyl-1H-benzimidazole-2-carboxamide] displayed an IC50 below 100 nM.

`C[C@@H](NC(=O)c1cccn1C)c1ncc(C(=O)NO)s1` [Compound I-174, N-hydroxy-2-((1R)-1-{[(1-methyl-1H-pyrrol-2-yl)carbonyl]amino}ethyl)-1,3-thiazole-5-carboxamide] had a half-inhibitory concentration (IC50) of 100 to 500 nM.

The compound `COc1ccc(C(=O)N[C@@H](C)c2ncc(C(=O)NO)s2)cc1` [Compound I-175, N-hydroxy-2-{(1S)-1-[(4-methoxybenzoyl)amino]ethyl}-1,3-thiazole-5-carboxamide] registered an IC50 of 100 to 500 nM.

For the compound `C[C@@H](NC(=O)c1cc2ccccc2s1)c1cc(C(=O)NO)on1` [Compound I-176, 3-{(1R)-1-[(1-benzothien-2-ylcarbonyl)amino]ethyl}-N-hydroxyisoxazole-5-carboxamide], the IC50 was above 500 nM.

Turning to `C[C@H](NC(=O)c1ccc(S(C)(=O)=O)cc1)c1ncc(C(=O)NO)s1` [Compound I-177, N-hydroxy-2-((1S)-1-{[4-(methylsulfonyl)benzoyl]amino}ethyl)-1,3-thiazole-5-carboxamide], the IC50 fell in the range of 100 to 500 nM.

In turn, `C[C@@H](NC(=O)c1cc2ccccc2s1)c1ncc(C(=O)NO)s1` [Compound I-178, 2-{(1R)-1-[(1-benzothien-2-ylcarbonyl)amino]ethyl}-N-hydroxy-1,3-thiazole-5-carboxamide] came in with an IC50 below 100 nM.

With `C[C@H](NC(=O)C12CC3CC(CC(C3)C1)C2)c1ncc(C(=O)NO)s1` [Compound I-179, 2-((1S)-1-{[1-adamantylcarbonyl]amino}ethyl)-N-hydroxy-1,3-thiazole-5-carboxamide], the IC50 was above 500 nM.

In turn, `C[C@H](NC(=O)c1cc2ccccc2s1)c1ncc(C(=O)NO)s1` [Compound I-180, 2-{(1S)-1-[(1-benzothien-2-ylcarbonyl)amino]ethyl}-N-hydroxy-1,3-thiazole-5-carboxamide] came in with an IC50 below 100 nM.

`C[C@@H](NC(=O)c1cc2ccccc2o1)c1cc(C(=O)NO)on1` [Compound I-181, (R)-3-(1-(benzofuran-2-carboxamido)ethyl)-N-hydroxyisoxazole-5-carboxamide]: the IC50 was above 500 nM.

Consider `C[C@@H](NC(=O)C(C)(C)C)c1cc(C(=O)NO)on1` [Compound I-182, 3-{(1R)-1-[(2,2-dimethylpropanoyl)amino]ethyl}-N-hydroxyisoxazole-5-carboxamide], for which the IC50 is above 500 nM.

Compound `C[C@H](NC(=O)C(C)(C)C)c1ncc(C(=O)NO)s1` [Compound I-183, 2-{(1S)-1-[(2,2-dimethylpropanoyl)amino]ethyl}-N-hydroxy-1,3-thiazole-5-carboxamide] came in with an IC50 above 500 nM.
